Literature values, collected in US11833140B2, “Compositions and methods for treating, ameliorating and preventing H. pylori infections” (priority 2017, dated 2023).

Legend:
H. pylori (HP) = details: first line therapy, with amoxicillin and clarithromycin
[1] = compared with conventional PPI's
[2] = after a single 20 mg ingestion
H^+/K^+—ATPAs = molecular target: T1, H^+/K^+—ATPAs (Homo sapiens, UniProt P20648); details: within 4 hours of its first administration in humans
T1 construct: increase intragastric pH to at least over pH 4.0 within 4 hours of its first administration in humans; host or cells: human stomach in vivo

CYP3A4 = CYP3A4 (Homo sapiens, UniProt P08684)
Chain of CYP3A4 (P08684 whole entry): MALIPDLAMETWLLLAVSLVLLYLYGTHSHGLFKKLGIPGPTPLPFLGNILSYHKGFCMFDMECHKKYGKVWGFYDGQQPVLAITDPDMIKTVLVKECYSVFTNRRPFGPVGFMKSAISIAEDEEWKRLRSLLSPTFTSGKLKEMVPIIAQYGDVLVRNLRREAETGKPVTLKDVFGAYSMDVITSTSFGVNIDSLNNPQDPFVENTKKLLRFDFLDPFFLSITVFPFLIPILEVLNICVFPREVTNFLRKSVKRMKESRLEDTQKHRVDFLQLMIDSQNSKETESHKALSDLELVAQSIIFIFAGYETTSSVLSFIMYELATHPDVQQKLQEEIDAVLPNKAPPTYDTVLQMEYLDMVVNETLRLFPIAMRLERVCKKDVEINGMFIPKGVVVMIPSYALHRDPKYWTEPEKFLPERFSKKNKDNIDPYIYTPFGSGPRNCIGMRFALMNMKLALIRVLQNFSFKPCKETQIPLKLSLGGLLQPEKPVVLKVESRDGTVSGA

T1 sequence (P20648 whole entry): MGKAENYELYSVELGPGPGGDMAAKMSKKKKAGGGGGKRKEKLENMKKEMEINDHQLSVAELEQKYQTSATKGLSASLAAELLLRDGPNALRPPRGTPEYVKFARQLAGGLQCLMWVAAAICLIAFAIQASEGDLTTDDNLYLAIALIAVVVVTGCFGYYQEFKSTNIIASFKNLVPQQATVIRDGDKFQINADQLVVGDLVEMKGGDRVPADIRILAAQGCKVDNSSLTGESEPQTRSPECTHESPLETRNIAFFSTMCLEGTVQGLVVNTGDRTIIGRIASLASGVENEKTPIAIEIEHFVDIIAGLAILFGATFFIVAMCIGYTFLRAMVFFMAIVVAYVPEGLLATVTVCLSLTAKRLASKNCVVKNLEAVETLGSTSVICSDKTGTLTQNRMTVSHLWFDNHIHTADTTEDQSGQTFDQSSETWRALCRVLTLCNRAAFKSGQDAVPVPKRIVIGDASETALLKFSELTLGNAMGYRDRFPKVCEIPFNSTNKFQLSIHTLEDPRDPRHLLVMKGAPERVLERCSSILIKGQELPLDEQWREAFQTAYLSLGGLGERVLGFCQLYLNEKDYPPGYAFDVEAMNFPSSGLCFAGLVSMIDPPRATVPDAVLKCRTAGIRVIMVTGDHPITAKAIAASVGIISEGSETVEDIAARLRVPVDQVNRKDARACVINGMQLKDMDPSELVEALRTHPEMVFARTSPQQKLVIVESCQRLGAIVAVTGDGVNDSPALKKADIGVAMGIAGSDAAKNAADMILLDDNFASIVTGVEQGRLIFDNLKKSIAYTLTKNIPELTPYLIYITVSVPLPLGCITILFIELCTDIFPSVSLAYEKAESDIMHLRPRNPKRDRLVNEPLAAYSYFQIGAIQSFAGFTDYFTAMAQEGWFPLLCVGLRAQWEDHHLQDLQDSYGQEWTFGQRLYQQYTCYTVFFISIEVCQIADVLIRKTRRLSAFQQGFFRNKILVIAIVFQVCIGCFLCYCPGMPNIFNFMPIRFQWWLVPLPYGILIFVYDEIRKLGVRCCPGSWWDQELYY
T1 sequence (P51164 whole entry partner): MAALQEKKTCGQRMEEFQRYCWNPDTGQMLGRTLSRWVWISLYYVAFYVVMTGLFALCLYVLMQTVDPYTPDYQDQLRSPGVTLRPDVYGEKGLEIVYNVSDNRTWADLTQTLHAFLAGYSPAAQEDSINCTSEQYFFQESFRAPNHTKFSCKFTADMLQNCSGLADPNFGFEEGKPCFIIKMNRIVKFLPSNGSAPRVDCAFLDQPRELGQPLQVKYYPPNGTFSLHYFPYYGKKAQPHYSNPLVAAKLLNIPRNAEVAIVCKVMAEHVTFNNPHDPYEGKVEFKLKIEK

stability at neutral pH [1]	plasma half-life [2]	metabolised through the hepatic CYP2C19 haplotypes (CYP2C19)	intragastric pH (H^+/K^+—ATPAs)	metabolised by (CYP3A4)	SMILES	H. pylori (HP) eradication rate (H. pylori (HP))
					Cc1c(OCC(F)(F)F)ccnc1C[S+]([O-])c1nc2ccccc2[nH]1 (stereo not drawn) [lansoprazole]	76%
more stable	7 h	not metabolised	> 4.0 pH	by the CYP3A4 system	CNCc1cc(-c2ccccc2F)n(S(=O)(=O)c2cccnc2)c1.O=C(O)/C=C/C(=O)O [vonoprazan, 1-(5-(2-fluorophenyl)-1-(pyridin-3-ylsulfonyl)-1H-pyrrol-3-yl)-N-methylmethanamine fumarate]	
